Measurements published in US11185068B2, “Diluent for sperm and method for preserving sperm using same” (Livestock Improvement Association of Japan, Inc., priority 2016, dated 2021).

Test system: thawed bovine sperm
Procedure: Semen collected from a breeding bull kept at Livestock Improvement Association of Japan was diluted with primary and secondary diluents prepared in the same manner as in Example 1 except that 30 g of fructo-oligosaccharide or 30 g of isomalto-oligosaccharide was added. The semen was diluted so that the final concentration of glycerin was 7%, thereby obtaining diluted sperm solutions. As a control group with soybean lecithin and devoid of fructo-oligosaccharide and isomalto-oligosaccharide, semen was diluted with the diluent described in Example 1 of Patent Document 4, the diluent having a final glycerin concentration of 7%. As a control group with egg yolk and devoid of fructo-oligosaccharide and isomalto-oligosaccharide, semen was diluted with the diluent described in Patent Document 1, produced and sold by Livestock Improvement Association of Japan for preparation of frozen semen, the diluent having a final glycerin concentration of 6.5%. Semen was diluted with each of these diluents so that the diluted semen contained 80 million sperm per ml. The second diluent was added to the primarily diluted semen at a ratio of 1:1 so that the semen contained 40 million sperm per ml. Straws for artificial insemination were then prepared by conventional methods. Cryopreservation was performed using liquid nitrogen by conventional methods. […]

Substance | adverse influence on the oocyte penetration ability of sperm and the development ability of fertilized embryo
fructo-oligosaccharide | substantially no adverse influence
isomalto-oligosaccharide | substantially no adverse influence
